We go through 34 compounds from patent publication US20230278966A1, “TRIAZOLONE COMPOUNDS FOR CONTROLLING INVERTEBRATE PESTS” (FMC Corporation, priority 2020, published 2023).

Molecules are shown by their SMILES.

This assay relates to Root Knot Nematodes. The assay can be described thus: Nematicide assay: control of Root Knot Nematode galling on host plant roots. In kind it is in vivo. The conditions noted are these: drip application, 4-day-old host plant, assessed after 8 days; for pest or weed control at 500 ppm / pest or weed control at 100 ppm: 192 h, read-out: control efficacy (decrease of nematode gall formation on roots compared to the inoculated control). The procedure: Test compounds were formulated using a solution containing 25% acetone and 75% water. The formulated compounds were applied in 330 μl of liquid through a drip applicator that was positioned above the top of each test unit. Test compounds were applied at 500 ppm and 100 ppm and each test was replicated three times. For evaluating control of Root Knot Nematodes the test unit consisted of a small open container with a 4-day-old host plant inside. The formulated compounds were dripped into the container and the nematodes were applied following the compound's application. The test units were held for 8 days in a growth chamber at 29.4° C. or 85 F. Root invasion by the nematodes was then visually assessed based on presence or absence of galls on the roots.

For the compound `O=C(NCCn1nc(C(F)(F)F)n(C2(C(F)(F)F)CCC2)c1=O)c1cccnc1C(F)(F)F` [Compound 169], the pest or weed control at 500 ppm (500 ppm) came to 100%.
The same measure, in the same setting: then `O=C(NCCn1nc(C(F)(F)F)n(C2CC2)c1=O)c1ccccc1Cl` [Compound 59], with 100%; and `CC(C)(C)n1c(C(F)(F)F)nn(CCNC(=O)c2ccccc2C(F)(F)F)c1=O` [Compound 10, N-[2-[4-(1,1-Dimethylethyl)-4,5-dihydro-5-oxo-3-(trifluoromethyl)-1H-1,2,4-triazol-1-yl]ethyl]-2-(trifluoromethyl)benzamide], with 100%.
On the same count and under the same terms, then `CC(C)n1c(C(F)F)nn(CCNC(=O)c2ccccc2C(F)(F)F)c1=O` [Compound 9], with 100%.
With `O=C(NCCn1nc(C(F)(F)F)n(C2(C(F)(F)F)CCC2)c1=O)c1ccccc1C(F)(F)F` [Compound 139], under “500 ppm”, the “control efficacy (decrease of nematode gall formation on roots compared to the inoculated control)” value was determined as 100%.
Take `O=C(NCCn1nc(C(F)(F)F)n(C2CC(F)(F)C2)c1=O)c1ccccc1Cl` [Compound 148]: the “control efficacy (decrease of nematode gall formation on roots compared to the inoculated control)” value runs as follows: (100 ppm) 100%; (500 ppm) 100%.
As to `Cc1ccccc1C(=O)NCCn1nc(C(F)(F)F)n(C(C)(C)C(F)(F)F)c1=O` [Compound 135], the “control efficacy (decrease of nematode gall formation on roots compared to the inoculated control)” value (500 ppm) is on record as 100%.
With `O=C(NCCn1nc(C(F)(F)F)n(C2(C(F)(F)F)CCC2)c1=O)c1ccccc1Cl` [Compound 149], the “control efficacy (decrease of nematode gall formation on roots compared to the inoculated control)” value (500 ppm) is recorded as 100%.
Take `O=C(NCCn1nc(C(F)(F)F)n(CC2CC2)c1=O)c1ccccc1C(F)(F)F` [Compound 32, N-[2-[4-(Cyclopropylmethyl)-4,5-dihydro-5-oxo-3-(trifluoromethyl)-1H-1,2,4-triazol-1-yl]ethyl]-2-(trifluoromethyl)benzamide]: the pest or weed control at 500 ppm (500 ppm) was 100%.
On the same count and under the same terms, then `O=C(NCCn1nc(C(F)(F)F)n(C2(C(F)(F)F)CCC2)c1=O)c1cccnc1Cl` [Compound 170], with 100%.
The same measure, in the same setting: the same measure for `CC(C)n1c(C(F)(F)F)nn(CCNC(=O)c2ccccc2C(F)(F)F)c1=O` [Compound 11]: 100%.
Consider `O=C(NCCn1nc(C(F)(F)F)n(C2CC(F)(F)C2)c1=O)c1ccccc1C(F)(F)F` [Compound 145], for which the “control efficacy (decrease of nematode gall formation on roots compared to the inoculated control)” value (100 ppm) is 100% and the “control efficacy (decrease of nematode gall formation on roots compared to the inoculated control)” value (500 ppm) is reported as 100%.
Consider `CC(C)(n1c(C(F)(F)F)nn(CCNC(=O)c2ccccc2Br)c1=O)C(F)(F)F` [Compound 133], for which the “control efficacy (decrease of nematode gall formation on roots compared to the inoculated control)” value reads like this: (100 ppm) 100%; (500 ppm) 100%.
Consider `CC(C)(n1c(C(F)(F)F)nn(CCNC(=O)c2cccnc2C(F)(F)F)c1=O)C(F)(F)F` [Compound 165], for which the “control efficacy (decrease of nematode gall formation on roots compared to the inoculated control)” value (100 ppm) is 100% and the “control efficacy (decrease of nematode gall formation on roots compared to the inoculated control)” value (500 ppm) is 100%.
Take `O=C(NCCn1nc(C(F)(F)F)n(C2CC(F)(F)C2)c1=O)c1ccccc1Br` [Compound 143]: under “500 ppm”, the “control efficacy (decrease of nematode gall formation on roots compared to the inoculated control)” value turned out to be 100%.
For the compound `O=C(NCCn1nc(C(F)(F)F)n(C2CC(F)(F)C2)c1=O)c1cccnc1C(F)(F)F` [Compound 173], for the setting “500 ppm”, the pest or weed control at 500 ppm came out at 100%.
The same measure, in the same setting: then `CC(C)(C)n1c(C(F)(F)F)nn(CCNC(=O)c2ccccc2Cl)c1=O` [Compound 38, 2-Chloro-N-[2-[4-(1,1-dimethylethyl)-4,5-dihydro-5-oxo-3-(trifluoromethyl)-1H-1,2,4-triazol-1-yl]ethyl]benzamide], with 100%; and `CC1(n2c(C(F)(F)F)nn(CCNC(=O)c3ccccc3C(F)(F)F)c2=O)CC1` [Compound 45], with 100%.
With `CC(C)(n1c(C(F)(F)F)nn(CCNC(=O)c2ccccc2C(F)(F)F)c1=O)C(F)(F)F` [Compound 179, N-[2-[4,5-Dihydro-5-oxo-4-(2,2,2-trifluoro-1,1-dimethylethyl)-3-(trifluoromethyl)-1H-1,2,4-triazol-1-yl]ethyl]-2-(trifluoromethyl)benzamide], for the setting “100 ppm”, the pest or weed control at 100 ppm worked out at 100%. In addition, the pest or weed control at 500 ppm (500 ppm) is 100%.
With `CC(n1c(C(F)(F)F)nn(CCNC(=O)c2cccnc2C(F)(F)F)c1=O)C(F)(F)F` (centres unmarked) [Compound 175], the “control efficacy (decrease of nematode gall formation on roots compared to the inoculated control)” value (500 ppm) was 100%.
Take `CC(C)(C)n1c(C(F)(F)F)nn(CCNC(=O)c2cccnc2Cl)c1=O` [Compound 92, 2-Chloro-N-[2-[4-(1,1-dimethylethyl)-4,5-dihydro-5-oxo-3-(trifluoromethyl)-1H-1,2,4-triazol-1-yl]ethyl]-3-pyridinecarboxamide]: the pest or weed control at 100 ppm (100 ppm) came to 100%. Under “500 ppm”, the pest or weed control at 500 ppm is 100%.
With `CC(n1c(C(F)(F)F)nn(CCNC(=O)c2cccnc2Cl)c1=O)C(F)(F)F` (centres unmarked) [Compound 166], the “control efficacy (decrease of nematode gall formation on roots compared to the inoculated control)” value (500 ppm) stood at 100%.
The same measure, in the same setting: the same measure for `O=C(NCCn1nc(C(F)(F)F)n(C2(C(F)(F)F)CCC2)c1=O)c1ccccc1Br` [Compound 142]: 100%.
Regarding `CC(C)n1c(C(F)(F)F)nn(CCNC(=O)c2ccccc2Cl)c1=O` [Compound 31], where the note is “500 ppm”, the pest or weed control at 500 ppm turned out to be 100%.
On the same count and under the same terms, the same measure for `CCn1c(C(F)(F)F)nn(CCNC(=O)c2ccccc2C(F)(F)F)c1=O` [Compound 12]: 100%.
For `CC(C)(n1c(C(F)(F)F)nn(CCNC(=O)c2cccnc2Cl)c1=O)C(F)(F)F` [Compound 171], the “control efficacy (decrease of nematode gall formation on roots compared to the inoculated control)” value by setting is: (100 ppm) 100%; (500 ppm) 100%.
In the case of `O=C(NCCn1nc(C(F)(F)F)n(CC(F)(F)F)c1=O)c1ccccc1C(F)(F)F` [Compound 1], the pest or weed control at 500 ppm (500 ppm) turned out to be 100%.
Same read-out and setting: the same measure for `Cn1c(C(F)(F)F)nn(CCNC(=O)c2ccccc2C(F)(F)F)c1=O` [Compound 14, N-[2-[4,5-Dihydro-4-methyl-5-oxo-3-(trifluoromethyl)-1H-1,2,4-triazol-1-yl]ethyl]-2-(trifluoromethyl)benzamide]: 100%.
As to `CC(C)(C)n1c(C(F)(F)F)nn(CCNC(=O)c2c(F)cccc2C(F)(F)F)c1=O` [Compound 128], the “control efficacy (decrease of nematode gall formation on roots compared to the inoculated control)” value (500 ppm) was found to be 100%.
As to `O=C(NCCn1nc(C(F)(F)F)n(CC(F)(F)F)c1=O)c1ccccc1Cl` [Compound 30], where the note is “500 ppm”, the pest or weed control at 500 ppm is 100%.
On the same count and under the same terms, then `CC(C)(C)n1c(C(F)(F)F)nn(CCNC(=O)c2cccnc2C(F)(F)F)c1=O` [Compound 93], with 100%; and `O=C(NCCn1nc(C(F)(F)F)n(C2CC2)c1=O)c1ccccc1C(F)(F)F` [Compound 2], with 100%.
With `CC(C)(n1c(C(F)(F)F)nn(CCNC(=O)c2ncccc2C(F)(F)F)c1=O)C(F)(F)F` [Compound 160], where the note is “500 ppm”, the “control efficacy (decrease of nematode gall formation on roots compared to the inoculated control)” value worked out at 100%.
Regarding `CC(C)(C)n1c(C(F)(F)F)nn(CCNC(=O)c2ccccc2Br)c1=O` [Compound 50, 2-Bromo-N-[2-[4-(1,1-dimethylethyl)-4,5-dihydro-5-oxo-3-(trifluoromethyl)-1H-1,2,4-triazol-1-yl]ethyl]benzamide], where the note is “500 ppm”, the pest or weed control at 500 ppm worked out at 100%.
